Calls of active or inactive are those of the source. No cut-off for these calls is given here.
How the values were obtained:
[1] = tested on: Human immunodeficiency virus 1; test: Synergistic antiviral activity against JRFL pseudotyped HIV1 infected in human Hut/CCR5 cells assessed as combination index in presence of rilpivirine by luciferase reporter gene based assay; type: functional
[2] = AUC (0 to 24 hrs) in monkey at 6 mg/kg, po administered as single dose by LC-MS/MS analysis; type: ADME, organism-based, Macaca mulatta; set-up: dose 6 mg/kg, time < 24 hr, route oral; conditions: rhesus monkey, in vivo
[3] = Tmax in monkey plasma at 6 mg/kg, po administered as single dose by LC-MS/MS analysis; type: ADME, organism-based, Macaca mulatta; conditions: rhesus monkey
[4] = Ratio of Cmax in monkey plasma at 6 mg/kg, po administered as single dose measured after 1 hr to Cmax in monkey plasma at 6 mg/kg, po administered as single dose measured after 24 hrs; type: ADME, organism-based, Macaca mulatta; conditions: rhesus monkey, in vivo
[5] = tested on: Human immunodeficiency virus 1; test: Antiviral activity against JRFL pseudotyped HIV1 infected in human Hut/CCR5 cells assessed as time needed to reach 50% reduction of virus infection at 0.1 nM incubated with cells for 4 hrs prior to compound washout followed by viral infection and measured after 72 hrs by luciferase reporter gene assay; type: functional
[6] = Cytotoxicity against human Hut/CCR5 cells assessed as reduction in cell viability at 0.1 to 10 nM measured after 120 hrs by MTT assay; type: cell-based; conditions: 0.01 µM
[7] = Effect on CD69 surface expression in IL2-induced human PBMC-derived CD4-positive T cells at 100 nM measured after 48 hrs by immunostaining based flow cytometry; type: ADME; conditions: 0.1 µM
[8] = tested on: Human immunodeficiency virus 1; test: Antiviral activity against HIV1 infected patient assessed as reduction in plasma viremia at 4 mg administered daily for 7 days measured 24 hrs post-last dose by qRT-PCR analysis; type: functional, organism-based
[9] = tested on: Human immunodeficiency virus 1; test: Antiviral activity against JRFL pseudotyped HIV1 infected in human Hut/CCR5 cells assessed as time needed to reach 50% reduction of virus infection at 1 nM incubated with cells for 4 hrs prior to compound washout followed by viral infection and measured after 72 hrs by luciferase reporter gene assay; type: functional

SMILES: [N-]=[N+]=N[C@]1(CO)O[C@@H](n2ccc(N)nc2=O)[C@@H](F)[C@@H]1O [RO-0622]
- CI50 [1]: 0.113
- CI75 [1]: 0.0902
- CI90 [1]: 0.07208
- CI95 [1]: 0.06194
- AUC(0-t) at 24 h [2]: 7.58 µM·h
- Tmax [3]: 1 h
- Ratio [4]: 320
- Time [5]: 68.6 to 68.63 h
- Activity [6]: Non-Toxic
- Activity [7]: Non-Toxic
- Activity [8]: Active
- Time [9]: 83.14 h

Reference: ChEMBL document CHEMBL4619799, “Mechanistic Insight into Antiretroviral Potency of 2'-Deoxy-2'-β-fluoro-4'-azidocytidine (FNC) with a Long-Lasting Effect on HIV-1 Prevention” (J Med Chem, 2020)
